Source: patent US20230381328A1, “COMPOUND FOR THE PREVENTION OR TREATMENT OF MYASTHENIA GRAVIS” (ABLEVIA BIOTECH GMBH, priority 2020, published 2023)

Test system: myasthenogenic antibody mAB 198
Assay: Peptide microarray mimotope screen, binding of mAB 198 to linear and cyclic peptides (fluorescence readout)
Parameters: species or system rat
Conditions: linear mimotopes; binding of mAB 198, relative fluorescent signal after normalization against background
Description: A custom peptide array of 30000 peptides was synthesized, with peptides of 7-19 amino acids in size; the peptides were based on substitution analyses of 176 AChR-MIR peptides with exchanges of each amino acid positions by each of the 20 common amino acids. Peptides were synthesized directly on a microarray, and screened with monoclonal antibody mAB 198 in order to obtain mimotopes with a binding strength which was improved over the human AChR alpha chain MIR-containing sequence […] (Tzartos et al, 1991; Luo et al, 2009) and over a previously published mimotope sequence ([…]), that was derived from Torpedo AchR with the help of antibody mAB 132A (Trinh et al, 2014). In particular, the wild type AChR-MIR sequence is known to structurally mimic to a certain extent the epitope recognized by myasthenogenic, unwanted and disease-causing antibodies from patients. The mimotope peptide library was designed by permutation of each single amino acid position of these two sequences with all natural amino acids in order to provide a maximally diversified collection of peptide variants. All peptides were synthesized in doublets as linear and as cyclic peptides. The aim was to obtain peptides (mimotopes) that mimic the natural epitope of myasthenogenic antibodies.
For the mimotope screen, the antibody mAB 198 (Absolute Antibody Ltd, UK) was used. This is a prototype antibody that was generated in rats using human AChR (Tzartos et al, 1983; Asher et al, 1993). […] Therefore, mAB198 was used as a surrogate probe to screen for new mimotopes that are capable of mimicking the corresponding AChR-MIR epitope or portions of the epitope.
As a readout, binding of mAB 198 to the 30000 linear and cyclic peptides was measured by fluorescence readout, and peptides were ranked according to their relative fluorescent signal after normalization against the background.
The top-ranked 100 linear and cyclic mimotopes are listed in Table 1 and Table 2 above, respectively.

Substance	relative signal [%]
1 (LRRNPAD) [compound 1]	100.0%
2 (NPADYRG) [compound 2]	71.4%
3 (NPADYHG) [compound 3]	59.3%
4 (VRLRWNPADYP) [compound 4]	56.7%
5 (LRGNPAD) [compound 5]	48.0%
6 (WNPADYR) [compound 6]	40.6%
7 (LRFNPAD) [compound 7]	37.1%
8 (GSLRYNP) [compound 8]	34.4%
9 (LRVNPADYG) [compound 9]	31.6%
10 (LRRNPADYG) [compound 10]	28.3%
11 (VRLRFNP) [compound 11]	27.1%
12 (VRLRYNP) [compound 12]	26.3%
13 (LRLNPAD) [compound 13]	25.2%
14 (VRLRRNPAD) [compound 14]	25.0%
15 (RFNPADY) [compound 15]	21.8%
16 (GSLRFNP) [compound 16]	21.6%
17 (NPDDYHG) [compound 17]	21.3%
18 (NPADYGY) [compound 18]	21.2%
19 (WNPADYP) [compound 19]	20.5%
20 (RLHWNPADY) [compound 20]	20.2%
21 (QWIDVRLRFNP) [compound 21]	20.1%

Substance	relative signal [%]
22 (NPADYPG) [compound 22]	19.8%
23 (NPADYGH) [compound 23]	18.1%
24 (RLNPADY) [compound 24]	17.7%
25 (LRLNPADYG) [compound 25]	17.3%
26 (LLGGGSLRFNP) [compound 26]	16.7%
27 (RYNPADY) [compound 27]	16.5%
28 (LRYNPAD) [compound 28]	15.9%
29 (LHWNPAD) [compound 29]	15.7%
30 (LRWNPADYH) [compound 30]	15.3%
31 (IDVRLRFNP) [compound 31]	15.0%
32 (RLRVNPADY) [compound 32]	14.9%
33 (NPADYGD) [compound 33]	14.1%
34 (WNPADYGHI) [compound 34]	13.7%
35 (YNLKFNP) [compound 35]	13.7%
36 (SLHWNPADY) [compound 36]	13.6%
37 (QWIDVRLRYNP) [compound 37]	13.4%
38 (RGNPADYGG) [compound 38]	13.0%
39 (GGGSLRFNP) [compound 39]	13.0%
40 (LRINPADYG) [compound 40]	12.6%
41 (RWNPADF) [compound 41]	12.6%
42 (RLRWNPADYHG) [compound 42]	12.4%

Substance	relative signal [%]
43 (IDVRLRYNP) [compound 43]	12.2%
44 (RINPADY) [compound 44]	12.2%
45 (NPADYGR) [compound 45]	12.2%
46 (RLRFNPADY) [compound 46]	11.4%
47 (WNPDDYR) [compound 47]	11.4%
48 (CNLKFNP) [compound 48]	11.0%
49 (SLRINPADY) [compound 49]	11.0%
50 (RLYWNPADY) [compound 50]	11.0%
51 (QWVDYNLKFNP) [compound 51]	10.9%
52 (GGGSLRRNPAD) [compound 52]	10.6%
53 (LRWNPADYGGF) [compound 53]	10.6%
54 (SLRWNPADYHG) [compound 54]	10.6%
55 (NPADYDG) [compound 55]	10.3%
56 (DVRLRFNPADY) [compound 56]	10.0%
57 (RRNPADY) [compound 57]	9.9%
58 (RPNPADY) [compound 58]	9.5%
59 (GSLRRNPAD) [compound 59]	9.5%
60 (WNPADYH) [compound 60]	9.4%
61 (RWNPADYGH) [compound 61]	9.4%
62 (GSLRFNPAD) [compound 62]	9.3%
63 (LRINPAD) [compound 63]	9.2%

Substance	relative signal [%]
64 (WRLRWNPAD) [compound 64]	9.0%
65 (GNPADYGGI) [compound 65]	8.9%
66 (RHNPADY) [compound 66]	8.9%
67 (WNPDDYGHV) [compound 67]	8.8%
68 (RPNPADYGG) [compound 68]	8.6%
69 (DVRLRINPADY) [compound 69]	8.5%
70 (YNLKYNP) [compound 70]	8.3%
71 (GGGSLRFNPAD) [compound 71]	8.1%
72 (VRHRWNPAD) [compound 72]	8.1%
73 (NPADYGI) [compound 73]	8.0%
74 (IDVRLRFNPAD) [compound 74]	7.9%
75 (NPDDYGH) [compound 75]	7.7%
76 (VPLRWNPAD) [compound 76]	7.6%
77 (YNLPWNP) [compound 77]	7.6%
78 (VDYNLKFNP) [compound 78]	7.6%
79 (HWNPADY) [compound 79]	7.4%
80 (RTNPADY) [compound 80]	7.2%
81 (LRWNPADYHGI) [compound 81]	7.2%
82 (GGGSLRYNP) [compound 82]	7.1%
83 (RLRGNPADY) [compound 83]	6.9%
